For 27 compounds, IC50 results are on record in patent US9273057B2 (Bristol-Myers Squibb Company, priority 2012, dated 2016).

Structures can show the parent of a compound that is named as a salt.

This assay deals with CK2A1 (CK2α/β) (Homo sapiens, UniProt P68400). As to the kind of experiment: CK2 kinase assay, CK2A1 (CK2α/β). The assay is classed as biochemical. The conditions noted are these: Table A; read-out: CK2A1 (CK2α/β) (IC50).
Chain of CK2A1 (CK2α/β) (P68400 whole entry, species assumed): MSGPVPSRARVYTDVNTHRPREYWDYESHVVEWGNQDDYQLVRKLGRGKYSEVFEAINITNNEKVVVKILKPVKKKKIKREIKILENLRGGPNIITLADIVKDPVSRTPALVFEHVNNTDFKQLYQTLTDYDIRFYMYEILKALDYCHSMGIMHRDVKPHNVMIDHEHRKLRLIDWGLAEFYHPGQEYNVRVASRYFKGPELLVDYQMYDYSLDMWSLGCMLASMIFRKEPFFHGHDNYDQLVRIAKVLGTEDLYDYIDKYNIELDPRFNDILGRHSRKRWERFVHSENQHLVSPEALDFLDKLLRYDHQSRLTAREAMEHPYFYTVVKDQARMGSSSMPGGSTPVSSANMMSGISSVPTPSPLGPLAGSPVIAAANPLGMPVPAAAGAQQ
Chain of CK2A1 (CK2α/β) (P67870 whole entry partner, species assumed): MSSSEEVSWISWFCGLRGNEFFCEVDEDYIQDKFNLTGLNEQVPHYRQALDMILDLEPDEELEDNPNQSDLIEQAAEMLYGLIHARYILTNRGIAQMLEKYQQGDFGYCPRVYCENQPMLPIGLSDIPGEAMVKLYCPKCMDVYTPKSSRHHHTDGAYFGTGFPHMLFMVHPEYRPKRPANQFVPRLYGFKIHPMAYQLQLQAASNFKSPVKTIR
As to `N#Cc1cc(CN=[N+]=[N-])c(Cl)c(Nc2nc(NC3CC3)c3ncc(C#N)n3n2)c1` [Example 683, 2-((3-(azidomethyl)-2-chloro-5-cyanophenyl)amino)-4-(cyclopropylamino)imidazo[2,1-f][1,2,4]triazine-7-carbonitrile], the IC50 stood at 0.14 nM.

Consider `N#Cc1cnc2c(NC3CC3)nc(Nc3cc(OC(F)F)cc(N4CCNCC4)c3Cl)nn12` [Example 558, 2-((2-chloro-5-(difluoromethoxy)-3-(piperazin-1-yl)phenyl)amino)-4-(cyclopropylamino)imidazo[2,1-f][1,2,4]triazine-7-carbonitrile], for which the IC50 was 5.37 nM.

As to `CC(CCc1cc(Cl)c(Nc2nc(NC3CC3)c3ncc(C#N)n3n2)cc1C#N)N1CCOCC1` (stereo not drawn) [Example 720, 2-((2-chloro-5-cyano-4-(3-morpholinobutyl)phenyl)amino)-4-(cyclopropylamino)imidazo[2,1-f][1,2,4]triazine-7-carbonitrile], the IC50 amounted to 2.48 nM.

For the compound `COC(=O)N[C@H]1CN(c2cc(C#N)cc(Nc3nc(NC4CC4)c4ncc(C#N)n4n3)c2Cl)C[C@@H]1OC` [Example 288, methyl ((3S,4S)-1-(2-chloro-5-cyano-3-((7-cyano-4-(cyclopropylamino)imidazo[2,1-f][1,2,4]triazin-2-yl)amino)phenyl)-4-methoxy-3-pyrrolidinyl)carbamate], the IC50 is 0.91 nM.

On to `CC(O)CN1CCC2CN(c3cc(C#N)cc(Nc4nc(NC5CC5)c5ncc(C#N)n5n4)c3Cl)CCC21` (racemic) [Example 447, (+/−)-2-((2-chloro-5-cyano-3-(1-(2-hydroxypropyl)hexahydro-1H-pyrrolo[3,2-c]pyridin-5(6H)-yl)phenyl)amino)-4-(cyclopropylamino)imidazo[2,1-f][1,2,4]triazine-7-carbonitrile], for which the IC50 worked out at 0.89 nM.

For the compound `COC[C@H](NC[C@H]1CN(c2cc(C#N)cc(Nc3nc(NC4CC4)c4ncc(C#N)n4n3)c2Cl)CCO1)C1CC1` [Example 704, 2-({2-chloro-5-cyano-3-[(2S)-2-({[(1R)-1-cyclopropyl-2-methoxyethyl]amino}methyl)morpholin-4-yl]phenyl}amino)-4-(cyclopropylamino)imidazo[2,1-f][1,2,4]triazine-7-carbonitrile], the IC50 worked out at 1.4 nM.

In the case of `CC1(N2CCOCC2)CCN(c2cc(C#N)cc(Nc3nc(NC4CC4)c4ncc(C#N)n4n3)c2Cl)CC1` [Example 304, 2-((2-chloro-5-cyano-3-(4-methyl-4-morpholinopiperidin-1-yl)phenyl)amino)-4-(cyclopropylamino)imidazo[2,1-f][1,2,4]triazine-7-carbonitrile, HCl], the IC50 stood at 0.8 nM.

For the compound `COC(=O)Nc1cc(Nc2nc(NC3CC3)c3ncc(C#N)n3n2)c(Cl)c(N2CCN(C)CC2)c1` [Example 200, methyl (4-chloro-3-((7-cyano-4-(cyclopropylamino)imidazo[2,1-f][1,2,4]triazin-2-yl)amino)-5-(4-methylpiperazin-1-yl)phenyl)carbamate], the IC50 was 2.51 nM.

As for `COCCOC(=O)N1CCN(c2cc(C#N)cc(Nc3nc(NC4CC4)c4ncc(C#N)n4n3)c2Cl)CC1` [Example 68, 2-methoxyethyl 4-(2-chloro-5-cyano-3-((7-cyano-4-(cyclopropylamino)imidazo[2,1-f] [1,2,4]triazin-2-yl)amino)phenyl)-1-piperazinecarboxylate], the IC50 was found to be 0.67 nM.

`COC(=O)N1CCC(N2CCN(c3cc(C#N)cc(Nc4nc(NC5CC5)c5ncc(C#N)n5n4)c3Cl)CC2)C1` (stereo not drawn) [Example 591, methyl 3-[4-(2-chloro-5-cyano-3-{[7-cyano-4-(cyclopropylamino)imidazo [2,1-f][1,2,4]triazine-2-yl]amino}phenyl)piperazin-1-yl]pyrrolidine-1-carboxylate]: the IC50 was 3.82 nM.

For `CN1CC2CC1CN2c1cc(C#N)cc(Nc2nc(NCC(F)(F)F)c3ncc(C#N)n3n2)c1Cl` (racemic) [Example 430, (+/−)-2-((2-chloro-5-cyano-3-((1R,4R)-5-methyl-2,5-diazabicyclo[2.2.1]heptan-2-yl)phenyl)amino)-4-((2,2,2-trifluoroethyl)amino)imidazo[2,1-f][1,2,4]triazine-7-carbonitrile], the IC50 stood at 0.97 nM.

With `CCNc1nc(Nc2cc(C#N)cc(N3CCC(N)CC3)c2Cl)nn2c(C#N)cnc12` [Example 329, 2-((3-(4-aminopiperidin-1-yl)-2-chloro-5-cyanophenyl)amino)-4-(ethylamino)imidazo[2,1-f][1,2,4]triazine-7-carbonitrile], the IC50 came out at 0.34 nM.

On to `N#Cc1cc(Nc2nc(NC3CC3)c3ncc(C#N)n3n2)c(Cl)c(N2CCN(C3CN(C(=O)CO)C3)CC2)c1` [Example 488, 2-[(2-chloro-5-cyano-3-{4-[1-(2-hydroxyacetyl)azetidin-3-yl]piperazin-1-yl}phenyl)amino]-4-(cyclopropylamino)imidazo[2,1-f][1,2,4]triazine-7-carbonitrile], for which the IC50 was 0.6 nM.

In the case of `CN(CCN)c1cc(C#N)cc(Nc2nc(NC3CC3)c3ncc(C#N)n3n2)c1Cl` [Example 50], the IC50 amounted to 0.63 nM.

Turning to `N#Cc1cc(Nc2nc(NC3CC3)c3ncc(C#N)n3n2)c(Cl)c(OCC2CNCCO2)c1` (stereo not drawn) [Example 441, 2-((2-chloro-5-cyano-3-(morpholin-2-ylmethoxy)phenyl)amino)-4-(cyclopropylamino)imidazo[2,1-f][1,2,4]triazine-7-carbonitrile], the IC50 stood at 1.17 nM.

As for `CCNc1nc(Nc2cc(NC(=O)OC)cc(N3CCN(C)CC3)c2F)nn2c(C#N)cnc12` [Example 386, methyl (3-((7-cyano-4-(ethylamino)imidazo[2,1-f][1,2,4]triazin-2-yl)amino)-4-fluoro-5-(4-methylpiperazin-1-yl)phenyl)carbamate], the IC50 was determined as 5.79 nM.

`N#Cc1cc(Nc2nc(NC3CC3)c3ncc(C#N)n3n2)c(Cl)c(N2CCN(CC(=O)NS(=O)(=O)C3CC3)CC2)c1` [Example 599, 2-[4-(2-chloro-5-cyano-3-{[7-cyano-4-(cyclopropylamino)imidazo [2,1-f][1,2,4]triazin-2-yl]amino}phenyl)piperazin-1-yl]-N-(cyclopropanesulfonyl) acetamide]: the IC50 turned out to be 0.4 nM.

For the compound `CN(C)C(=O)C1CN(c2cc(C#N)cc(Nc3nc(NC4CC4)c4ncc(C#N)n4n3)c2Cl)CCN1CC(O)CF` (single isomer, unassigned) [Example 315, (+/−) 4-(2-chloro-5-cyano-3-((7-cyano-4-(cyclopropylamino)imidazo [2,1-f][1,2,4]triazin-2-yl)amino)phenyl)-1-(3-fluoro-2-hydroxypropyl)-N,N-dimethyl-2-piperazinecarboxamide], the IC50 is 0.37 nM.

`COC(=O)N[C@@H]1CN(c2cc(C#N)cc(Nc3nc(NC4CC4)c4ncc(C#N)n4n3)c2Cl)CC[C@H]1O` (racemic) [Example 191, (+/−)-methyl ((3R,4R)-1-(2-chloro-5-cyano-3-((7-cyano-4-(cyclopropylamino)imidazo[2,1-f][1,2,4]triazin-2-yl)amino)phenyl)-4-hydroxypiperidin-3-yl)carbamate]: the IC50 is 0.66 nM.

As to `N#Cc1cc(Nc2nc(NC3CC3)c3ncc(C#N)n3n2)c(Cl)c(OC[C@@H]2COCCN2)c1` [Example 439, (S)-2-((2-chloro-5-cyano-3-(morpholin-3-ylmethoxy)phenyl)amino)-4-(cyclopropylamino)imidazo[2,1-f][1,2,4]triazine-7-carbonitrile], the IC50 was 0.75 nM.

For the compound `COC[C@H](NC[C@H]1CN(c2cc(C#N)cc(Nc3nc(NC4CC4)c4ncc(C#N)n4n3)c2Cl)CCN1C)C1CC1` [Example 706, 2-({2-chloro-5-cyano-3-[(3S)-3-({[(1R)-1-cyclopropyl-2-methoxyethyl]amino}methyl)-4-methylpiperazin-1-yl]phenyl}amino)-4-(cyclopropylamino)imidazo[2,1-f][1,2,4]triazine-7-carbonitrile], the IC50 came to 1.76 nM.

With `N#Cc1cc(Nc2nc(NC3CC3)c3ncc(C#N)n3n2)c(Cl)c(N2CCN(CCC(F)F)CC2)c1` [Example 595, 2-({2-chloro-5-cyano-3-[4-(3,3-difluoropropyl)piperazin-1-yl]phenyl}amino)-4-(cyclopropylamino)imidazo [2,1-f][1,2,4]triazine-7-carbonitrile], the IC50 was 1.44 nM.

Turning to `CS(=O)(=O)N1CC(N2CCN(c3cc(C#N)cc(Nc4nc(NC5CC5)c5ncc(C#N)n5n4)c3Cl)CC2)C1` [Example 73], the IC50 came out at 0.74 nM.

Take `N#Cc1cc(Nc2nc(NC3CC3)c3ncc(C#N)n3n2)c(Cl)c(N2CCN3C[C@H](O)C[C@H]3C2)c1` (racemic) [Example 434, (+/−)-2-((2-chloro-5-cyano-3-((7R,8aS)-7-hydroxyhexahydropyrrolo[1,2-a]pyrazin-2(1H)-yl)phenyl)amino)-4-(cyclopropylamino)imidazo[2,1-f][1,2,4]triazine-7-carbonitrile]: the IC50 came to 0.61 nM.

On to `CN(C)C(=O)C1CN(c2cc(C#N)cc(Nc3nc(NC4CC4)c4ncc(C#N)n4n3)c2Cl)CCN1CC(C)(C)O` (stereo not drawn) [Example 317, 4-(2-chloro-5-cyano-3-((7-cyano-4-(cyclopropylamino)imidazo [2,1-f][1,2,4]triazin-2-yl)amino)phenyl)-1-(2-hydroxy-2-methylpropyl)-N,N-dimethylpiperazine-2-carboxamide], for which the IC50 worked out at 0.99 nM.

As for `CC(C)(O)C(=O)N1CCN(c2cc(C#N)cc(Nc3nc(NC4CC4)c4ncc(C#N)n4n3)c2Cl)CC1` [Example 79, 2-((2-chloro-5-cyano-3-(4-(2-hydroxy-2-methylpropanoyl)-1-piperazinyl)phenyl)amino)-4-(cyclopropylamino) imidazo[2,1-f][1,2,4] triazine-7-carbonitrile], the IC50 amounted to 0.53 nM.

Regarding `N#Cc1cc(Nc2nc(NC3CC3)c3ncc(C#N)n3n2)c(Cl)c(N2CC[C@H]3[C@H](CCN3C3CS(=O)(=O)CC3O)C2)c1` (stereo in doubt) [Example 453, 2-((2-chloro-5-cyano-3-(1-((3S,4S)-4-hydroxy-1,1-dioxidotetrahydrothiophen-3-yl)hexahydro-1H-pyrrolo[3,2-c]pyridin-5(6H)-yl)phenyl)amino)-4-(cyclopropylamino)imidazo[2,1-f][1,2,4]triazine-7-carbonitrile], the IC50 was determined as 1.04 nM.
